The test system of one data set is nucleic acid. The note with it: cited from earlier work.
The test system of the next data set is salmon sperm DNA. The data set can be described thus: Absorbance and fluorescence emission spectra of dyes without or with DNA in PBS buffer. Format: physicochemical. Particulars: for red shift of absorbance upon binding to DNA, relative to free dye: 2 mg/ml salmon sperm DNA; for red shift of absorbance upon binding to DNA, relative to free dye / spectra of the free dyes: intramolecular H-dimer (hairpin) formation: PBS buffer; for spectra of the free dyes: intramolecular H-dimer (hairpin) formation: FIG. 5. On the procedure: The spectra were normalized to 1 in the absorbance plot. […] The heterodimeric dye AORO-7 comprises a monomeric AO dye and a fluorescent non-nucleic acid rosamine RO dye. Two emission peaks, contributed by AO and RO moieties, respectively, were recorded.

The subject of data set [1] is salmon sperm DNA or a mixture of single-stranded 20mer oligonucleotide. The data set can be described thus: Fluorescence of AOAO-12 in response to different amounts of DNA (microtiter plate reader). Format: binding. The note with it: 0.1 μM dye in PBS. The method, then: It can be seen that fluorescence linearly responded to DNA up to 2.0 μg/ml (inset). At higher concentrations of DNA, the response became non-linear.

The subject of the next data set is PCR reaction. The data set can be described thus: Real-time PCR (qPCR) amplification of ATPB fragment in pTOPO plasmid with a fluorescent monitoring dye. Format: biochemical. The note with it: for inhibition of PCR (Ct delay) by the dye: increasing dye concentration. For orientation: Real-time PCR tracks product formation cycle by cycle.
The test system of data set [2] is amplicons HMBS, RPL4, SDHA, TBP. The data set can be described thus: Melting curves of amplicons after qPCR. Format: biochemical. The note with it: for melting peaks of the HMBS amplification reaction (primer dimer): HMBS amplicon, FIG. 15. The method, then: SYBR Green I was reported to be advantageous in that the melting temperature of an amplicon could be detected after qPCR amplification. The melting temperature provides valuable information about the amplicon, as it is a function of the size and GC content of the amplicon. No melting temperatures could be collected from TaqMan reactions. Melting curves from four amplicons, i.e., HMBS (SEQ ID NO: 4), RPL4 (SEQ ID NO: 5), SDHA (SEQ ID NO: 6), and TBP (SEQ ID NO: 7) were measured from reactions amplified in the presence of AOAO-12 (Panel A) or SYBR Green (Panel B) and are presented in FIG. 15.
It has been reported that qPCR reactions with SYBR Green I tend to form primer-dimers, and the tendency is closely related to the concentration of SYBR Green I. It has been postulated that SYBR Green I binds to DNA so tightly that it interferes with the performance of Taq DNA polymerase. As AOAO-12 has less affinity to DNA, the interference should be alleviated.

Data set [3] is described as follows: Thermo-stability of dye at 96° C. in PCR reaction buffers with PCR products. Format: physicochemical. Particulars: 96° C. for 40 minutes. The method, then: Specifically, AOAO-12 was kept in PCR reaction buffers with PCR products. The mixture was heated to 96° C. for 40 minutes. During the heating course, the mixture was brought down to 60° C. briefly to monitor the fluorescence.

The conditions of data set [4]: stored in Tris buffer at 4° C.; cited from earlier work.

Structures are written as SMILES. Entries after “also recorded” stand apart in the source; their conditions may differ. A value given as a limit tells only on which side of the number the result lay.

With `CN(C)c1ccc2cc3ccc(N(C)C)cc3nc2c1` [AO, acridine orange], in the data set on nucleic acid (DNA bound), the “absorption wavelength λabs” value was 500 nm. Also, the “affinity for nucleic acid” value in the data set with nucleic acid is given as “very low”. For the same molecule, the extinction coefficient in the data set with nucleic acid (in M-1·cm-1 (unit assumed)) is recorded as > 50,000.
`CN(C)c1ccc2cc3ccc(N(C)C)cc3[n+](CCCCCC(=O)NCCCCCNC(=O)CCCCC[n+]3c4cc(N(C)C)ccc4cc4ccc(N(C)C)cc43)c2c1` [AOAO-7]: in the data set on salmon sperm DNA, the “red shift of absorbance upon binding to DNA, relative to free dye” value turned out to be 5 nm. In addition, the “new shorter wavelength peak in absorbance” value in the data set on salmon sperm DNA (free dye in PBS buffer, without DNA) was determined as 471 nm.
`CN(C)c1ccc2cc3ccc(N(C)C)cc3[n+](CCCCCC(=O)NCCOCCNC(=O)CCCCC[n+]3c4cc(N(C)C)ccc4cc4ccc(N(C)C)cc43)c2c1` [AOAO-12]: in data set [1], the “DNA concentration up to which fluorescence responded linearly” value is recorded as “up to 2.0 μg/ml” and the “fluorescence bound to double stranded versus single stranded DNA” value was “fluoresces more intensely when bound to double stranded DNA than when bound to single stranded DNA”. In addition, the “final fluorescence signal strength relative to SYBR Green I” value in the data set with PCR reaction (qPCR, dye at higher usable concentration) is on record as “several folds higher; also recorded: several times higher”. Further, the “inhibition of PCR (Ct delay) by the dye” value in the data set with PCR reaction (qPCR) is listed as “without exhibiting inhibition; also recorded: little or no inhibition”. In addition, in data set [2], the “melting peaks of the HMBS amplification reaction (primer dimer)” value is “only a single, clean, and specific peak”. The “melting temperatures of amplicons relative to SYBR Green I” value in data set [2] (four amplicons, lower than SYBR Green I) is “about 2 degrees”. Also, in data set [2] (relative to SYBR Green I), the DNA binding affinity result is listed as “binds DNA with high affinity but less tightly than SYBR Green I” and the “height of melting peaks” value is given as “markedly higher”. In addition, the “stability (fluorescence monitored at 60° C.)” value in data set [3] is “stable at 96 °C for 40 minutes substantially without loss of fluorescence”.
`CC1=CC(C)(C)Nc2cc3c(cc21)C(c1ccc(C(=O)NCCCCCC(=O)NCCCCCNC(=O)CCCCC[n+]2c4cc(N(C)C)ccc4cc4ccc(N(C)C)cc42)cc1)=c1cc2c(cc1O3)=NC(C)(C)C=C2C` [AORO-7]: in the data set with salmon sperm DNA, the “absorption peak of rosamine dye component” value was found to be 600 nm and the “emission peak of rosamine dye component” value was around 620 nm. In the data set with salmon sperm DNA (DNA), the “absorption peak of AO component” value stood at 503 nm and the “emission peak of AO component” value is 523 nm.
Turning to `CN(C)CCC[n+]1c2cc(N(C)C)ccc2cc2ccc(N(C)C)cc21.[I-]` [DMAO], the “red shift of absorbance upon binding to DNA, relative to free dye” value in the data set on salmon sperm DNA was 10 nm.
As for `CCCN(CCCN(C)C)c1cc(/C=C2/Sc3ccccc3N2C)c2ccccc2[n+]1-c1ccccc1` [SYBR Green I, reference compound], the “chemical stability on storage” value in data set [4] is listed as “decomposes significantly over the course of a few days”. In addition, the “inhibition of PCR (Ct delay) by the dye” value in the data set with PCR reaction (qPCR) is listed as “exhibited inhibition to PCR reactions; also recorded: significantly inhibits PCR at higher dye concentration”. In addition, the “melting peaks of the HMBS amplification reaction (primer dimer)” value in data set [2] is listed as “has an extra primer dimer peak”.
Consider `CN1/C(=C/c2cc[n+](CCC[N+](C)(C)CCC[N+](C)(C)CCC[n+]3ccc(/C=C4\Sc5ccccc5N4C)c4ccccc43)c3ccccc23)Sc2ccccc21.[I-].[I-].[I-].[I-]` [TOTO-1, reference compound], for which the “spectra of the free dyes: intramolecular H-dimer (hairpin) formation” value in the data set on salmon sperm DNA (without DNA) is recorded as “has less spectral shift”. Besides, the “inhibition of PCR (Ct delay) by the dye” value in the data set on PCR reaction (qPCR) is listed as “completely inhibited the PCR reaction”.
As for `C[n+]1c(C=C2C=CN(CCCCCC(=O)NCCNC(=O)CCCCCN3C=CC(=Cc4sc5ccccc5[n+]4C)c4ccccc43)c3ccccc32)sc2ccccc21` [TOTO-3], in the data set on salmon sperm DNA (without DNA), the “spectra of the free dyes: intramolecular H-dimer (hairpin) formation” value is reported as “forms an intramolecular H-dimer, or a hairpin structure”.
In the case of `C[n+]1c(C=C2C=CN(CCCCCC(=O)CNCCOCCNC(=O)CCCCCN3C=CC(=Cc4sc5ccccc5[n+]4C)c4ccccc43)c3ccccc32)sc2ccccc21` [TOTO-12], the “Ct and fluorescence intensity in qPCR relative to TO” value in the data set on PCR reaction (FIG. 11) was “improved Ct and improved fluorescence intensity relative to TO”.
For `CN(C)c1ccc2cc3ccc(=[N+](C)C)cc-3oc2c1.[Cl-]` [pyronin Y], in the data set with nucleic acid, the absorption maximum is 548 nm and the emission maximum is 565 nm.

The values are drawn from patent publication US9580749B2, “Dyes and labeled molecules” (Biotium, Inc., priority 2005, dated 2017).
